Literature values as cited in patent US20240245628A1, “COMPOSITIONS AND METHODS FOR HEALTH COMPRISING CO-ENZYME Q10” (Bausch + Lomb Ireland Limited, priority 2023, published 2024).

Conditions: at levels as high as 800.0 mg

Substance: vitamin E
- adverse effects of vitamin E: No adverse effects
